Laboratory results: patent publication EP0888056B1, “HERBICIDAL MIXTURES” (BASF AKTIENGESELLSCHAFT, priority 1996, dated 1998)
Where “and” joins values, the source holds several entries; their conditions need not be identical. Identical values can stand only once.

Tests used:
Assay type in all cases: in vivo
Matricaria inodora = experiment: greenhouse herbicidal trial, post-emergence application, assessment 21 days after treatment
Experimental: (§1) The trials are carried out under greenhouse conditions in pre- and post-emergence applications. The plant seeds are sown in pots containing a loamy sand soil (0.5 I). The herbicides are applied as single treatments, or in a combination comprising a BAP compound and a non-BAP compound as designated, before or after emergence of weeds and crop. The herbicidal performance is assessed as percent damage in comparison to the untreated control plants. The assessment is done 21 days after the treatment. Wheat and barley are treated at the 3-4 leaf stage, the broad-leaf weeds at the 2-4 leaf stage and annual grasses at the 2-3 leaf stage.

Myosotis arvensis = experiment: as above
Experimental: as §1

Papaver rhoeas = experiment: as above
Experimental: as §1

Galium aparine = experiment: as above
Experimental: as §1

Polygonum convolvulus = experiment: as above
Experimental: as §1

Lamium purpureum = experiment: as above
Experimental: as §1

Alopecurus myosuroides [1] = experiment: greenhouse herbicidal trial, pre-emergence application, assessment 21 days after treatment
Experimental: as §1

Stellaria media = experiment: greenhouse herbicidal trial, post-emergence application, assessment 21 days after treatment
Experimental: as §1

Polygonum lapathifolium = experiment: as above
Experimental: as §1

Veronica persica = experiment: as above
Experimental: as §1

Setaria viridis = experiment: as above
Experimental: as §1

Lolium perenne = experiment: as above
Experimental: as §1

Alopecurus myosuroides [2] = experiment: as above
Experimental: as §1

Poa annua = experiment: as above
Experimental: as §1

Viola arvensis = experiment: as above
Experimental: as §1

[3] = Galium aparine (1.whorl), 60 g a.i./ha
[4] = Galium aparine (2.whorl), 60 g a.i./ha
[5] = Galium aparine (1.whorl), 120 g a.i./ha
[6] = Galium aparine (2.whorl), 120 g a.i./ha
[7] = Galium aparine (1.whorl), 15 g a.i./ha
[8] = Galium aparine (1.whorl), 30 g a.i./ha
[9] = Galium aparine (2.whorl), 15 g a.i./ha

For N#Cc1cc(I)c(O)c(I)c1 [loxynil, reference compound], the “% Control” value (Matricaria inodora; 60 g a.i./ha) was 89%, the “% Control” value (Myosotis arvensis; 60 g a.i./ha) was 37% and the “% Control” value (Papaver rhoeas; 60 g a.i./ha) was 0%. The “% Control” value (Galium aparine; [3]) was 40% and the “% Control” value (Galium aparine; [4]) was 5%.

For Cc1cc(Cl)ccc1O[C@H](C)C(=O)O [CMPP-P, (R)-2-(4-chloro-2-methylphenoxy) proprionic acid], the “% Control” value (Papaver rhoeas; 480 g a.i./ha) was 47%, the “% Control” value (Polygonum convolvulus; 480 g a.i./ha) was 40% and the “% Control” value (Lamium purpureum; 480 g a.i./ha) was 67%.

For CCC(CC)Nc1c([N+](=O)[O-])cc(C)c(C)c1[N+](=O)[O-] [Pendimethalin], the “% Control” value (Alopecurus myosuroides [1]; 450 g a.i./ha) was 35% and the “% Control” value (Alopecurus myosuroides [1]; 900 g a.i./ha) was 55%.

With CCCCCCCC(=O)Oc1c(Br)cc(C#N)cc1Br [Bromoxynil, Bromoxynil Octanoate, reference compound] the “% Control” value (Papaver rhoeas; 60 g a.i./ha) was 79%, the “% Control” value (Stellaria media; 60 g a.i./ha) was 0% and the “% Control” value (Galium aparine; [3]) was 70%. For the same compound, the “% Control” value (Galium aparine; [5]) was 75%, the “% Control” value (Galium aparine; [4]) was 57% and the “% Control” value (Galium aparine; [6]) was 77%. The “% Control” value (Lamium purpureum; 60 g a.i./ha) was 17%.

Nc1c(Cl)c(F)nc(OCC(=O)O)c1Cl [Fluroxypyr, reference compound] was tested, and the “% Control” value (Polygonum lapathifolium; 120 g a.i./ha) was 80%, the “% Control” value (Matricaria inodora; 90 g a.i./ha) was 45% and the “% Control” value (Papaver rhoeas; 90 g a.i./ha) was 0%. For the same compound, the “% Control” value (Polygonum convolvulus; 90 g a.i./ha) was 45%, the “% Control” value (Stellaria media; 120 g a.i./ha) was 67% and the “% Control” value (Veronica persica; 120 g a.i./ha) was 52%.

For CC(C)c1ccc(NC(=O)N(C)C)cc1 [Isoproturon, reference compound], the “% Control” value (Alopecurus myosuroides [1]; 120 g a.i./ha) was 75%, the “% Control” value (Myosotis arvensis; 1920 g a.i./ha) was 25% and the “% control” value (Setaria viridis; 150 g a.i./ha) was 58%. For the same compound, the “% control” value (Lolium perenne; 150 g a.i./ha) was 10%, the “% control” value (Lolium perenne; 300 g a.i./ha) was 40% and the “% Control” value (Polygonum convolvulus; 1920 g a.i./ha) was 4%. For the same compound, the “% control” value (Alopecurus myosuroides [2]; 150 g a.i./ha) was 30%, the “% control” value (Alopecurus myosuroides [2]; 300 g a.i./ha) was 73% and the “% Control” value (Galium aparine; Galium aparine (2.whorl), 1920 g a.i./ha) was 0%. For the same compound, the “% control” value (Poa annua; 150 g a.i./ha) was 65%, the “% control” value (Poa annua; 300 g a.i./ha) was 83% and the “% Control” value (Lamium purpureum; 1920 g a.i./ha) was 3%. For the same compound, the “% Control” value (Viola arvensis; 1920 g a.i./ha) was 65% and the “% Control” value (Veronica persica; 1920 g a.i./ha) was 0%.

With Cc1cc(Oc2cc(C(F)(F)F)nn2C)nc(Oc2cc(C(F)(F)F)nn2C)c1 [Compound B] the “% Control” value (Polygonum lapathifolium; 15 g a.i./ha) was 17%, the “% Control” value (Matricaria inodora; 15 9 a.i./ha) was 7% and the “% Control” value (Matricaria inodora; 15 g a.i./ha) was 20%. For the same compound, the “% Control” value (Matricaria inodora; 30 g a.i./ha) was 22%, the “% Control” value (Papaver rhoeas; 7.5 g a.i./ha) was 7% and the “% Control” value (Polygonum convolvulus; 15 g a.i./ha) was 7%. The “% Control” value (Polygonum convolvulus; 30 g a.i./ha) was 15% and 7%, the “% Control” value (Stellaria media; 7.5 g a.i./ha) was 25% and the “% Control” value (Stellaria media; 15 g a.i./ha) was 47% and 45% and 27%. The “% Control” value (Stellaria media; 30 g a.i./ha) was 62% and 42%, the “% Control” value (Galium aparine; Galium aparine (1.whorl), 15 9 a.i./ha) was 80% and the “% Control” value (Galium aparine; [7]) was 67% and 40%. For the same compound, the “% Control” value (Galium aparine; [8]) was 83% and 52%, the “% Control” value (Galium aparine; Galium aparine (2.whorl), 15 9 a.i./ha) was 60% and the “% Control” value (Galium aparine; [9]) was 45% and 37%. The “% Control” value (Galium aparine; Galium aparine (2.whorl), 30 g a.i./ha) was 67% and 65% and 45%, the “% Control” value (Galium aparine; Galium aparine (3.whorl), 15 g a.i./ha) was 40% and the “% Control” value (Galium aparine; Galium aparine (3.whorl), 30 g a.i./ha) was 40%. The “% Control” value (Lamium purpureum; 7.5 g a.i./ha) was 70%, the “% Control” value (Veronica persica; 7.5 g a.i./ha) was 65% and the “% Control” value (Veronica persica; 15 g a.i./ha) was 77%.

With CCNc1nc(Cl)nc(NC(C)(C)C#N)n1 [Cyanazine, reference compound] the “% Control” value (Matricaria inodora; 120 g a.i./ha) was 52%, the “% Control” value (Matricaria inodora; 240 g a.i./ha) was 85% and the “% Control” value (Papaver rhoeas; 120 g a.i./ha) was 0%. For the same compound, the “% Control” value (Papaver rhoeas; 240 g a.i./ha) was 0%, the “% Control” value (Polygonum convolvulus; 120 g a.i./ha) was 60% and the “% Control” value (Stellaria media; 120 g a.i./ha) was 61%. The “% Control” value (Stellaria media; 240 g a.i./ha) was 72%, the “% Control” value (Galium aparine; [5]) was 5% and the “% Control” value (Galium aparine; Galium aparine (1.whorl), 240 g a.i./ha) was 10%. The “% Control” value (Galium aparine; [6]) was 0%, the “% Control” value (Galium aparine; Galium aparine (2.whorl), 240 g a.i./ha) was 10% and the “% Control” value (Galium aparine; Galium aparine (3.whorl), 120 g a.i./ha) was 0%. The “% Control” value (Galium aparine; Galium aparine (3.whorl), 240 g a.i./ha) was 5%.

For Cn1nc(C(F)(F)F)cc1Oc1cccc(Oc2cc(C(F)(F)F)nn2C)n1 [Compound A], the “% Control” value (Matricaria inodora; 15 g a.i./ha) was 1%, the “% Control” value (Matricaria inodora; 30 g a.i./ha) was 1% and the “% Control” value (Myosotis arvensis; 15 g a.i./ha) was 72%. The “% Control” value (Myosotis arvensis; 30 g a.i./ha) was 57%, the “% Control” value (Papaver rhoeas; 15 g a.i./ha) was 79% and the “% Control” value (Papaver rhoeas; 60 g a.i./ha) was 10%. The “% Control” value (Stellaria media; 30 g a.i./ha) was 45% and 65%, the “% Control” value (Galium aparine; [8]) was 80% and 57% and the “% Control” value (Galium aparine; Galium aparine (1.whorl), 50 g a.i./ha) was 50%. For the same compound, the “% Control” value (Galium aparine; [3]) was 67%, the “% Control” value (Galium aparine; Galium aparine (2.whorl), 50 g a.i./ha) was 30% and the “% Control” value (Galium aparine; [4]) was 42%. For the same compound, the “% Control” value (Lamium purpureum; 30 g a.i./ha) was 65% and 62% and 35%, the “% Control” value (Viola arvensis; 30 g a.i./ha) was 75% and the “% Control” value (Veronica persica; 30 g a.i./ha) was 81%.

In the case of CC(Oc1ccc(Oc2nc3ccc(Cl)cc3o2)cc1)C(=O)O (centres unmarked) [Fenoxaprop, reference compound], the “% Control” value (Setaria viridis; 15 g a.i./ha) is reported as 62%, the “% Control” value (Setaria viridis; 30 g a.i./ha) is reported as 72% and the “% Control” value (Setaria viridis; 60 g a.i./ha) is reported as 77%.

In the case of COc1cc(OC)nc(NC(=O)NS(=O)(=O)N(C)S(C)(=O)=O)n1 [Amidosulfuron, reference compound], the “% Control” value (Papaver rhoeas; 30 g a.i./ha) is reported as 15%, the “% Control” value (Stellaria media; 30 g a.i./ha) is reported as 50% and the “% Control” value (Galium aparine; [7]) is reported as 40%. For the same compound, the “% Control” value (Galium aparine; [9]) was 20%, the “% Control” value (Lamium purpureum; 30 g a.i./ha) was 0% and the “% Control” value (Veronica persica; 30 g a.i./ha) was 0%.

In the case of Cc1cc(OCc2ccc(F)cc2)nc(Oc2cc(C(F)(F)F)nn2C)c1 [Compound C], the “% Control” value (Setaria viridis; 12.5 g a.i./ha) is reported as 30%, the “% control” value (Setaria viridis; 12.5 g a.i./ha) is reported as 30% and the “% control” value (Setaria viridis; 25 g a.i./ha) is reported as 55%. The “% control” value (Setaria viridis; 50 g a.i./ha) was 75%, the “% control” value (Lolium perenne; 12.5 g a.i./ha) was 38% and the “% control” value (Lolium perenne; 25 g a.i./ha) was 65%. For the same compound, the “% control” value (Lolium perenne; 50 g a.i./ha) was 78%, the “% control” value (Alopecurus myosuroides [2]; 12.5 g a.i./ha) was 65% and the “% control” value (Alopecurus myosuroides [2]; 25 g a.i./ha) was 83%. The “% control” value (Alopecurus myosuroides [2]; 50 g a.i./ha) was 88% and the “% control” value (Poa annua; 12.5 g a.i./ha) was 75%.

With Cc1cc(OCc2ccccc2)nc(Oc2cc(C(F)(F)F)nn2C)c1 [Compound D] the “% Control” value (Alopecurus myosuroides [1]; 15 g a.i./ha) was 60% and 57%.
